ChEMBL document CHEMBL1201862, “PubChem BioAssay data set” (2004)
The source made the active and inactive calls.

Legend:
[1] = loss of viability in HepG2 cells – cell-based, CellTiter-Glo, cherry-picked, cytotoxicity control for Shn3 inhibitor project, dose response (AID 624134); format: functional
[2] = reduction of Shn3 3'UTR-driven luciferase in osteoblasts – cell-based, Clone20 osteoblasts, firefly luciferase, cherry-picked, dose response (AID 624132); format: functional;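 further: firefly luciferase luminescence from reporter carrying the Shn3 3'UTR in osteoblasts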
[3] = non-specific 3'UTR reporter inhibition in Clone20-Shn3RL – cell-based, Renilla luciferase, cherry-picked, counter-screen for Shn3 inhibitor project, dose response (AID 624133); format: functional
[4] = Shn3 3'UTR reporter signal decrease – cell-based, Clone20 osteoblasts, firefly luciferase, cherry-pick, set 2, Schnurri-3 inhibitor project, dose response (AID 720490); format: functional;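 further: actives lower the luminescence signal as inhibitors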
[5] = HEK293 Cytotoxicity Assay Measured in Cell-Based System Using Plate Reader - 7071-01_Inhibitor_Dose_CherryPick_Activity_Set2.; format: functional
HEK293 = assay: viability loss in HEK293T cells – cell-based, ATP luminescence, cherry-pick samples, cytotoxicity control, dose response (AID 687005); format: functional; conditions: Homo sapiens;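 further: cells exposed to compound for 48 hours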
Vasopressin V1b receptor = Vasopressin V1b receptor (Homo sapiens, UniProt P47901); assay: Late-stage results from the probe development effort to identify antagonists of arginine vasopressin receptor 1a (AVPR1a): fluorescence-based cell-based dose response AVPR1b inhibition counterscreen assay.; format: functional
[6] = Late-stage results from the probe development effort to identify antagonists of arginine vasopressin receptor 1a (AVPR1a): fluorescence-based cell-based dose response OXTR inhibition counterscreen assay.; format: functional
[7] = Late-stage results from the probe development effort to identify antagonists of arginine vasopressin receptor 1a (AVPR1a): fluorescence-based cell-based dose response AVPR1a inhibition assay.; format: functional
Vasopressin V2 receptor = Vasopressin V2 receptor (Homo sapiens, UniProt P30518); assay: Late-stage results from the probe development effort to identify antagonists of arginine vasopressin receptor 1a (AVPR1a): fluorescence-based cell-based dose response AVPR2 inhibition counterscreen assay.; format: functional
[8] = IGROV1 cell killing – plate reader, dry powder samples, PAX8 inhibitor project, dose response (AID 743043); format: functional, cell-based; conditions: IGROV-1
[9] = general cell-killing toxicity readout – plate reader, dry powder samples, cytotoxicity control for PAX8 inhibitor project, dose response (AID 743021); format: functional, cell-based
[10] = P. falciparum Dd2 growth inhibitors, dose response, SYBR Green, cherry-picked samples (AID 1159567); format: functional, cell-based
[11] = toxicity to human hepatoma HepG2 cells – cell-based, cherry-picked samples, cytotoxicity control, dose response (AID 1159577); format: functional
[12] = A2780 cell killing – plate reader, dry powder samples, cytotoxicity control, dose response (AID 743046); format: functional, cell-based

Chain of Vasopressin V2 receptor (P30518 whole entry): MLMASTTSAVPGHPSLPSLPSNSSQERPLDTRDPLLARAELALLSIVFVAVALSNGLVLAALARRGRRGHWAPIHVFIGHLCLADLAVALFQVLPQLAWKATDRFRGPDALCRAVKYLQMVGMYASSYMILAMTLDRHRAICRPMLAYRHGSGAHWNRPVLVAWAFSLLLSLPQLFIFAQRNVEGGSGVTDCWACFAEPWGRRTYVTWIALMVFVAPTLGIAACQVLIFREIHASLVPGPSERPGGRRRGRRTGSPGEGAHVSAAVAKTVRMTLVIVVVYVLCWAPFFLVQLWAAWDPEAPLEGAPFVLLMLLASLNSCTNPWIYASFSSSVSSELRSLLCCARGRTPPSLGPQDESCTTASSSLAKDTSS
Chain of Vasopressin V1b receptor (P47901 whole entry): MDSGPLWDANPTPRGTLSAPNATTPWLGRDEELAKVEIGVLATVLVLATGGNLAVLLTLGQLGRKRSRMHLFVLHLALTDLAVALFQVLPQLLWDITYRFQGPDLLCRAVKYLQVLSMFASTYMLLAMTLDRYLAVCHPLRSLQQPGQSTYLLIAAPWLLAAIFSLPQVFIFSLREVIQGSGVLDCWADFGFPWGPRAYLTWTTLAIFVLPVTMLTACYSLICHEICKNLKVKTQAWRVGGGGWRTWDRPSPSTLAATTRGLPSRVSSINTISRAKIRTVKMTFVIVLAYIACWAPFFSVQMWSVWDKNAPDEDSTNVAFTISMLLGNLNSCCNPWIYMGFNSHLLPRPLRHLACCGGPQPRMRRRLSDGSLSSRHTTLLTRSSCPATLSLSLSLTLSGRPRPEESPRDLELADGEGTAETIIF

SMILES: Cc1ccc([C@@H]2CC(=O)[C@@H]3CN(S(=O)(=O)c4ccccc4C)[C@H](c4ccc(Cl)cc4)C[C@@H]3N2S(=O)(=O)c2ccc(C)cc2)cc1
- AC50 [1]: 36.7 µM (active)
- AC50 [2]: 361 nM (active)
- AC50 [3]: 3.29 µM (active)
- AC50 [4]: 672 nM (active)

SMILES: CN1C(=O)c2cc(NC(=O)NC3CCCC3)ccc2OC[C@H]2O[C@@H](CC(=O)NCC3CC3)CC[C@@H]21
- AC50 [5]: > 57 µM (inactive)
- AC50 (HEK293): > 57 µM (inactive)

SMILES: Cc1noc(C)c1NC(=O)Nc1ccc2c(c1)C(=O)N([C@H](C)CO)C[C@@H](C)[C@H](CN(C)S(C)(=O)=O)OCCCC[C@@H](C)O2
- AC50 [5]: 16.3 µM (active)
- AC50 (HEK293): 16.3 µM (active)

SMILES: O=C(C1CCN(c2ncccc2Cl)CC1)N(CC1CC1)c1ccc(Cl)cc1
- IC50 (Vasopressin V1b receptor): 7.1 µM (active)
- IC50 [6]: 1.7 µM (active)
- IC50 [7]: 23.2 nM (active)
- IC50 (Vasopressin V2 receptor): 11.3 µM (inactive)

SMILES: Cc1ccc(-c2ccc([C@@H]3[C@@H]4CN(Cc5ccccc5F)C[C@H]3N4)cc2)cc1
- AC50 [8]: 55.4 µM (active)
- AC50 [9]: 13.2 µM (active)
- AC50 [10]: 4.05 µM (active)
- AC50 [11]: 10.3 µM (active)
- AC50 [12]: 63.6 µM (active)
